Test results reported in paper PMC7150870 (Toxins, 2020).
Like-named read-outs stand apart in the source and are kept apart here. Marks after values point to notes of the source that are not given here.

Columns and labels:
HEK293T [1] = type: cell-based, human
HEK 293T cells [2] = test system: HEK 293T cells
[3] = test system: HepG2, Caco-2, RAW 264.7, and HEK 293T cells
cells = conditions: cited from earlier work
HepG2 = type: cell-based, human
RAW 264.7 = type: cell-based, mouse
HEK 293T cells [4] = type: cell-based, human
Caco-2 = type: cell-based, human
HEK293T [5] = type: cell-based, human; remark: listed apart in the source
epithelial cell layers = conditions: cited from earlier work
HEK293T cells = type: cell-based, human; conditions: read-out: IC50 halving the HEK293T cells viability
[6] = human (Caco-2), mouse (RAW 264.7)

CC(C)C[C@@H]1NC(=O)[C@H](C)N(C)C(=O)CNC(=O)/C(=C/c2ccccc2)N(C)C1=O [TEN, tentoxin]
combination index, mixture of DAS (6.58 nM) (HEK293T [1]): 0.92 ± 0.17 Add | combination index, mixture of HT-2 (21.22 nM) (HEK293T [1]): 0.94 ± 0.04 Add | combination index, mixture of T-2 (3.87 nM) (HEK293T [1]): 0.92 ± 0.07 Add | type of interaction, mixture of DAS (6.58 nM) (HEK293T [1]): 0.92 ± 0.17 Add (key: Syn: Combination index (CI) < 0.9; Add: 0.9 ≤ CI ≤ 1; Ant: CI > 1) | type of interaction, mixture of HT-2 (21.22 nM) (HEK293T [1]): 0.94 ± 0.04 Add (key: Syn: Combination index (CI) < 0.9; Add: 0.9 ≤ CI ≤ 1; Ant: CI > 1) | type of interaction, mixture of T-2 (3.87 nM) (HEK293T [1]): 0.92 ± 0.07 Add (key: Syn: Combination index (CI) < 0.9; Add: 0.9 ≤ CI ≤ 1; Ant: CI > 1) | percentage of DNA in comet tail with respect to the negative control (HEK 293T cells [2]): no significant DNA damage | metabolites found by non-target U-HPLC-MS analysis (Caco-2 cells): metabolite M1, metabolite M2, and metabolite M3 | transepithelial transport, Apical Medium (Caco-2 cells): 28.07 ± 0.62^abc % | transepithelial transport, Basolateral Medium (Caco-2 cells): 7.25 ± 0.72^ab % | transepithelial transport, Caco-2 Cells (Caco-2 cells): 0.00 ± 0.00^a % | transepithelial transport, Raw 264.7 Cells (Caco-2 cells): 0.00 ± 0.00^a % | transepithelial transport, Total (Caco-2 cells): 35.33 ± 0.10^ab % | IC50 [3]: > 0.05 µM

enniatin A1 [ENN-A1]
combination index, mixture of DAS (6.58 nM) (HEK293T [1]): 0.79 ± 0.04 Syn | combination index, mixture of HT-2 (21.22 nM) (HEK293T [1]): 0.93 ± 0.01 Add | combination index, mixture of T-2 (3.87 nM) (HEK293T [1]): 1.27 ± 0.13 Ant | type of interaction, mixture of DAS (6.58 nM) (HEK293T [1]): 0.79 ± 0.04 Syn (key: Syn: Combination index (CI) < 0.9; Add: 0.9 ≤ CI ≤ 1; Ant: CI > 1) | type of interaction, mixture of HT-2 (21.22 nM) (HEK293T [1]): 0.93 ± 0.01 Add (key: Syn: Combination index (CI) < 0.9; Add: 0.9 ≤ CI ≤ 1; Ant: CI > 1) | type of interaction, mixture of T-2 (3.87 nM) (HEK293T [1]): 1.27 ± 0.13 Ant (key: Syn: Combination index (CI) < 0.9; Add: 0.9 ≤ CI ≤ 1; Ant: CI > 1) | concentration with statistically significant decrease in viability of cells (cells): 1 µM

beauvericin
combination index, mixture of DAS (6.58 nM) (HEK293T [1]): 0.96 ± 0.04 Add | combination index, mixture of HT-2 (21.22 nM) (HEK293T [1]): 0.91 ± 0.04 Add | combination index, mixture of T-2 (3.87 nM) (HEK293T [1]): 0.95 ± 0.07 Add | type of interaction, mixture of DAS (6.58 nM) (HEK293T [1]): 0.96 ± 0.04 Add (key: Syn: Combination index (CI) < 0.9; Add: 0.9 ≤ CI ≤ 1; Ant: CI > 1) | type of interaction, mixture of HT-2 (21.22 nM) (HEK293T [1]): 0.91 ± 0.04 Add (key: Syn: Combination index (CI) < 0.9; Add: 0.9 ≤ CI ≤ 1; Ant: CI > 1) | type of interaction, mixture of T-2 (3.87 nM) (HEK293T [1]): 0.95 ± 0.07 Add (key: Syn: Combination index (CI) < 0.9; Add: 0.9 ≤ CI ≤ 1; Ant: CI > 1) | concentration with statistically significant decrease in viability of cells (cells): 3 µM

CC(=O)OC[C@]12C[C@H](OC(=O)CC(C)C)C(C)=C[C@H]1O[C@@H]1[C@H](O)[C@@H](O)[C@@]2(C)[C@]12CO2 [HT-2, HT-2 toxin]
combination index, mixture of DAS (6.58 nM) (HEK293T [1]): 0.54 ± 0.03 Syn | combination index, mixture of T-2 (3.87 nM) (HEK293T [1]): 0.67 ± 0.04 Syn | type of interaction, mixture of DAS (6.58 nM) (HEK293T [1]): 0.54 ± 0.03 Syn (key: Syn: Combination index (CI) < 0.9; Add: 0.9 ≤ CI ≤ 1; Ant: CI > 1) | type of interaction, mixture of T-2 (3.87 nM) (HEK293T [1]): 0.67 ± 0.04 Syn (key: Syn: Combination index (CI) < 0.9; Add: 0.9 ≤ CI ≤ 1; Ant: CI > 1) | IC50 (HepG2): 0.0474 ± 0.00129 µM | IC50 (RAW 264.7): 0.00507 ± 0.00046 µM | combination index, silibinin 1.7 µM (HEK 293T cells [4]): 1.10 ± 0.02 Add | combination index, silibinin 3.4 µM (HEK 293T cells [4]): 1.27 ± 0.11 Ant | combination index, silibinin 6.8 µM (HEK 293T cells [4]): 1.57 ± 0.15 Ant | combination index, silibinin 13.6 µM (HEK 293T cells [4]): 1.25 ± 0.08 Ant | combination index, silibinin 27.3 µM (HEK 293T cells [4]): 1.06 ± 0.07 Add | combination index, silibinin 54.5 µM (HEK 293T cells [4]): 1.03 ± 0.04 Add | combination index, silibinin 109.00 µM (HEK 293T cells [4]): 1.08 ± 0.03 Add | type of interaction, silibinin 1.7 µM (HEK 293T cells [4]): 1.10 ± 0.02 Add (key: Syn: Combination index (CI) < 0.9; Add: 0.9 ≤ CI ≤ 1; Ant: CI > 1) | type of interaction, silibinin 3.4 µM (HEK 293T cells [4]): 1.27 ± 0.11 Ant (key: Syn: Combination index (CI) < 0.9; Add: 0.9 ≤ CI ≤ 1; Ant: CI > 1) | type of interaction, silibinin 6.8 µM (HEK 293T cells [4]): 1.57 ± 0.15 Ant (key: Syn: Combination index (CI) < 0.9; Add: 0.9 ≤ CI ≤ 1; Ant: CI > 1) | type of interaction, silibinin 13.6 µM (HEK 293T cells [4]): 1.25 ± 0.08 Ant (key: Syn: Combination index (CI) < 0.9; Add: 0.9 ≤ CI ≤ 1; Ant: CI > 1) | type of interaction, silibinin 27.3 µM (HEK 293T cells [4]): 1.06 ± 0.07 Add (key: Syn: Combination index (CI) < 0.9; Add: 0.9 ≤ CI ≤ 1; Ant: CI > 1) | type of interaction, silibinin 54.5 µM (HEK 293T cells [4]): 1.03 ± 0.04 Add (key: Syn: Combination index (CI) < 0.9; Add: 0.9 ≤ CI ≤ 1; Ant: CI > 1) | type of interaction, silibinin 109.00 µM (HEK 293T cells [4]): 1.08 ± 0.03 Add (key: Syn: Combination index (CI) < 0.9; Add: 0.9 ≤ CI ≤ 1; Ant: CI > 1) | IC50 (Caco-2): 0.0442 ± 0.00226 µM | transepithelial transport, Apical Medium (Caco-2 cells; [6]): 72.63±2.25^f % | transepithelial transport, Basolateral Medium (Caco-2 cells; [6]): 49.18 ± 1.80^g % | transepithelial transport, Caco-2 Cells (Caco-2 cells; [6]): 0.01 ± 0.00^a % | transepithelial transport, Raw 264.7 Cells (Caco-2 cells; [6]): 0.01 ± 0.00^a % | transepithelial transport, Total (Caco-2 cells; [6]): 121.83 ± 1.33^f % | IC50 (HEK293T [5]): 0.0212 ± 0.0016 µM | IC50 ([3]; read-out: IC50 range in studied cells): 0.00507 to 0.0474 µM | transport through the epithelial cell layers (epithelial cell layers): ≤ 32% | IC50 (HEK293T cells): 0.03 µM
